In publication PMC9837764 (Nature Communications, 2023):
Several values for one entry are separate records, joined by “and”; a condition that tells them apart may be missing. Identical values can stand only once. Like-named read-outs stand apart in the source and are kept apart here.

Assays:
TNF-α = TNF-α in supernatant of SARS-CoV-2-infected human primary monocytes; assay type: cell-based; details: infected monocytes
Procedure: Human primary monocytes were obtained after 3 h of plastic adherence of peripheral blood mononuclear cells (PBMCs). The use of primary human cell was approved by Institutional Review Board from the Oswaldo Cruz Foundation under protocol 49971421.8.0000.5248 with signed informed consent in accordance with the Hemotherapy Service of Hospital Clementino Fraga from the Federal University of Rio de Janeiro. All volunteers were de-identified. PBMCs were isolated from healthy donors by density gradient centrifugation (Ficoll-Paque, GE Healthcare). PBMCs (2.0 × 10^6 cells) were plated onto 48-well plates (NalgeNunc) in RPMI-1640 without serum for 2–4 h. Nonadherent cells were removed, and the remaining monocytes were maintained in DMEM with 5% human serum (HS; Millipore) and penicillin/streptomycin. The purity of human monocytes was above 95%, as determined by flow cytometric analysis (FACScan; Becton Dickinson) using anti-CD3 (BD Biosciences, cat # 555342, 1:40), anti-CD16 (Southern Biotech, cat # 561313, 1:20) and APC mouse IgG2a isotype (BD Biosciences, cat # 550882, 1/40) and PE mouse IgG1 isotype (BD Biosciences, 555749, 1/20).

SARS-CoV-2 = test: Genomic and subgenomic viral RNA in infected Calu-3 cells (RT-PCR); assay type: cell-based; details: Calu-3, 10 µM, 48 h
SARS-CoV-2 RNA = test: RNA immunoprecipitation with anti-kinetin antibody, infected Calu-3 cells; assay type: cell-based
[1] = Pharmacokinetics and metabolites in rat plasma; assay type: in vivo, Sprague-Dawley rats (Rattus norvegicus); set-up: MB-905 in rat plasma (Fig4B source data, per animal) / MB-905 in rat plasma (Fig4A source data, per animal): unit not given here; details: for MB-905 in rat plasma (Fig4A source data, per animal): 1 mg/kg i.v.; for MB-905 in rat plasma (Fig4B source data, per animal): 30 mg/kg oral; for k el: read-out: Ke (converted)
[2] = MB-905 and metabolites in rat lung; assay type: in vivo, Sprague-Dawley rats (Rattus norvegicus); details: 30 mg/kg oral
Procedure: Noncompartmental data analysis was performed using Phoenix WinNonlin®.
Pharmacokinetics in rodent plasma was performed in CD1 mice (Mus musculus, 20–30 g) and Sprague‒Dawley rats (Rattus norvegicus, 250–300 g) of both sexes. […] After oral or intravenous administration, blood samples were collected at times of 0.25, 0.5, 1, 2, 4, 8, and 24 and 0.083, 0.25, 0.5, 1, 2, and 4 h. Parameters such as area under the curve (AUC), time taken to reach the maximum concentration (Tmax), time taken for Cmax to drop in half (T 1/2), volume of distribution, clearance, elimination constant and bioavailability (F) were evaluated. Bioavailability was calculated using the following equation: F (%) = [(intravenous dose x oral AUC)/(oral dose × intravenous AUC)] × 100. […] Animals were treated orally with MB-905 as previously described. Animals were sacrificed at different time points after treatments, and lungs were immediately removed, placed in liquid nitrogen at −80 °C and processed for further analysis. For the analysis of plasma and lung supernatant, UPLC–MS/MS equipment was used.
Supplementary Fig. 6. Pharmacokinetic and putative metabolites of MB-905 in rats. a, […]
plasma (n = 6); b, Single oral dose (30 mg/kg bodyweight) pharmacokinetics properties of MB- […]
mg/kg, p.o.) (n=5) d, Single oral dose (30 mg/kg bodyweight) pharmacokinetics properties of […]
(30 mg/kg, p.o.) (n=3) f, Single oral dose (30 mg/kg bodyweight) pharmacokinetics properties of […]

in vivo = details: both sexes, mouse, mice
Procedure: For the MTD assay (OECD 425), mice (3 animals of each sex/group) were divided into five experimental groups, and the up and down procedure was applied to which 175 mg/kg was used as the first dose. […] Mortality, morbidity, body weight, food consumption, and general and detailed clinical signs of toxicity were evaluated. At necropsy, vital (brain, heart, liver, spleen, kidneys and adrenal glands) and reproductive organs (ovaries, testicles, and epididymis) were carefully removed, weighed and stored for further analysis (if necessary).

SARS-CoV-2 gamma VoC [3] = test system: SARS-CoV-2 gamma VoC; set-up: species or system K18-hACE2 mice (Mus musculus); details: mouse, in vivo
SARS-CoV-2 Gamma VoC [4] = details: hamster, in vivo, 140 mg/kg
[5] = test system: Salmonella typhimurium TA 98; test: Ames test, strain TA 98
[6] = test system: Salmonella typhimurium TA 97a; test: Ames test, strain TA 97a
[7] = MB-905-treated infected Calu-3 cells
[8] = both sexes, Sprague-Dawley, rat, plasma, iv, rats, 1 mg/kg (i.v.)
[9] = both sexes, Sprague-Dawley, rat, plasma, po, rats, 30 mg/kg (p.o.)

c1coc(CNc2ncnc3[nH]cnc23)c1 [MB-905, N6-furfurylaminopurine]
SARS-CoV-2-induced TNF and IL-6 levels (TNF-α; 10 µM): diminished
TNF-α levels in the culture supernatant (Fig1D source data, per donor) (TNF-α; drugs at 10 µM, 24 h): 0.7 and 0.9 and 0.537 and 2.5 and 0.474 and 3.4
Genomic viral RNA (Fig2B source data, replicates) (SARS-CoV-2): 0.2 and 0.15 and 0.1
Subgenomic viral RNA (Fig2B source data, replicates) (SARS-CoV-2): 0.6 and 0.5 and 0.7
Viral RNA immunoprecipitated with anti-kinetin antibody (Ab) (Fig2C source data) (SARS-CoV-2 RNA; [7]): 149.09 and 145.01 and 123.64 and 134.36
Viral RNA immunoprecipitated with isotype control (Iso) (Fig2C source data) (SARS-CoV-2 RNA; [7]): 2.52 and 2.29 and 2.30 and 2.50
Enrichment of viral RNA in anti-N6-furfuryladenine IP compared to isotype control and nil-treated cells (SARS-CoV-2 RNA; infected Calu-3 cells): more than 10 fold
MB-905 in rat plasma (Fig4A source data, per animal) ([1]; 0.083 h): 122.29 and 142.1 and 107.27 and 127.39 and 93.94
MB-905 in rat plasma (Fig4A source data, per animal) ([1]; 0.25 h): 82.46 and 129.29 and 128.28 and 120.23 and 112.61
MB-905 in rat plasma (Fig4A source data, per animal) ([1]; 0.5 h): 65.31 and 60.03 and 69.73 and 52.81 and 69.66
MB-905 in rat plasma (Fig4A source data, per animal) ([1]; 1 h): 28.25 and 16.64 and 9.33 and 14.09 and 7.19 and 13.17
MB-905 in rat plasma (Fig4A source data, per animal) ([1]; 2 h): 1.74 and 1.82 and 1.9 and 1.56 and 1.91
MB-905 in rat plasma (Fig4A source data, per animal) ([1]; 3 h): 0.61 and 1.31 and 1.15 (3×) and 1.21
MB-905 in rat plasma (Fig4B source data, per animal) ([1]; 0.25 h): 397.32 and 362.53 and 415.61 and 353.44
MB-905 in rat plasma (Fig4B source data, per animal) ([1]; 1 h): 263.22 and 231.26 and 292.83 and 229.84
MB-905 in rat plasma (Fig4B source data, per animal) ([1]; 2 h): 88.19 and 121.59 and 183.67 and 211.01 and 229.72
MB-905 in rat plasma (Fig4B source data, per animal) ([1]; 3 h): 243.45 and 113.36 and 86.5 and 220.24 and 141.51
MB-905 in rat plasma (Fig4B source data, per animal) ([1]; 5 h): 154.28 and 65.58 and 86.37 and 126.88 and 27.06
MB-905 in rat plasma (Fig4B source data, per animal) ([1]; 8 h): 116.98 and 84.1 and 84.26 and 4.12 and 35.08
MB-905 in rat plasma (Fig4B source data, per animal) ([1]; 12 h): 1.46 and 1.1 and 5.1 and 3.6 and 2.01
bioavailability ([1]; both sexes, Sprague-Dawley, rat, plasma, iv, 1 mg/kg, rats, 1 mg/kg (i.v.), read-out: F): 100%
AUC [1, 8]: 77.1 ng·h/mL
AUC(0-t) [1, 8]: 77.1 ng·h/mL
Cmax [1, 8]: 124 ng/mL
Tmax [1, 8]: 4.98 min
clearance [1, 8]: 214 mL/min/kg
half-life [1, 8]: 33.6 min
k el [1, 8]: 0.000342 s⁻¹
Vd ([1]; both sexes, Sprague-Dawley, rat, plasma, iv, rats, 1 mg/kg (i.v.), read-out: Vz): 10.4 L/kg
bioavailability ([1]; both sexes, Sprague-Dawley, rat, plasma, po, 30 mg/kg, rats, 30 mg/kg (p.o.), read-out: F): 64.7%
bioavailability ([1]; both sexes, Sprague-Dawley, rat, plasma, po, 30 mg/kg, rats, read-out: Oral bioavailability): > 50%
AUC [1, 9]: 1500 ng·h/mL
AUC(0-t) [1, 9]: 1500 ng·h/mL
Cmax [1, 9]: 370 ng/mL
Tmax [1, 9]: 15 min
half-life [1, 9]: 229 min
k el [1, 9]: 5e-05 s⁻¹
CL ([1]; rats, 30 mg/kg (p.o.)): 330.53 mL/min/kg
Vz ([1]; rats, 30 mg/kg (p.o.)): 109.18 L/kg
MB-905 in rat lung (Fig4C source data, per animal) ([2]; 1 h): 231.05 and 263.97 and 218.08
MB-905 in rat lung (Fig4C source data, per animal) ([2]; 2 h): 360.89 and 345.91 and 313.18
MB-905 in rat lung (Fig4C source data, per animal) ([2]; 4 h): 100.91 and 155.47 and 69.56
MB-905 in rat lung (Fig4C source data, per animal) ([2]; 8 h): 7.77 and 46.28 and 12.38
MB-905 in rat lung (Fig4C source data, per animal) ([2]; 12 h): 0
NOAEL (in vivo): 500 mg/kg
MTD (in vivo; oral, read-out: Recommended dose for repeated exposure (MTD assay)): 550 mg/kg
Fig6G lung histological score (SARS-CoV-2 gamma VoC [3]): 1 and 2
Tolerability (body weight) (SARS-CoV-2 Gamma VoC [4]): tolerated
Mutagenicity TA 98 +S9 ([5]; 8 µg/mL): -
Mutagenicity TA 98 -S9 ([5]; 8 µg/mL): -
Mutagenicity TA 98 +S9 ([5]; 40 µg/mL): -
Mutagenicity TA 98 -S9 ([5]; 40 µg/mL): -
Mutagenicity TA 98 +S9 ([5]; 200 µg/mL): -
Mutagenicity TA 98 -S9 ([5]; 200 µg/mL): -
Mutagenicity TA 98 +S9 ([5]; 1,000 µg/mL): -
Mutagenicity TA 98 -S9 ([5]; 1,000 µg/mL): -
Mutagenicity TA 98 +S9 ([5]; 5,000 µg/mL): -
Mutagenicity TA 98 -S9 ([5]; 5,000 µg/mL): -
Mutagenicity TA 97a +S9 ([6]; 8 µg/mL): -
Mutagenicity TA 97a -S9 ([6]; 8 µg/mL): -
Mutagenicity TA 97a +S9 ([6]; 40 µg/mL): -
Mutagenicity TA 97a -S9 ([6]; 40 µg/mL): -
Mutagenicity TA 97a +S9 ([6]; 200 µg/mL): -
Mutagenicity TA 97a -S9 ([6]; 200 µg/mL): -
Mutagenicity TA 97a +S9 ([6]; 1,000 µg/mL): -
Mutagenicity TA 97a -S9 ([6]; 1,000 µg/mL): -
Mutagenicity TA 97a +S9 ([6]; 5,000 µg/mL): -
Mutagenicity TA 97a -S9 ([6]; 5,000 µg/mL): -
Ames test ([6]; all strains of Supplementary Table 3): negative
